Assays:
Format in all cases: biochemical
[1] = tested on: α-isomaltosyl-transferring enzyme from Arthrobacter globiformis A19; test: Specificity to transferring acceptor; set-up: key: −: no saccharide transferred product was formed; ±: a saccharide-transferred product formed in an amount of less than one percent to the total sugars; +: a saccharide-transferred product was formed in an amount of over one percent but below 10% to the total sugars; ++: a saccharide-transferred product was formed in an amount of over 10% to the total sugars; conditions: partially purified enzyme, panose as saccharide donor, 10 units/g substrate, 3.2% (w/v), 30° C., pH 6.0, 24 hours
How it was run: (§1)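 Candidate acceptor saccharides mixed with panose donor at equal concentration, 10 units/g substrate enzyme, total saccharide 3.2% (w/v), reacted 24 h at 30 °C, pH 6.0. Transfer product formation scored positive/negative by GLC (mono-/disaccharides) or HPLC (tri- and higher).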

[2] = tested on: α-isomaltosyl-transferring enzyme from Bacillus globisporus C9; test: Specificity to transferring acceptor; set-up: key: −: no saccharide transferred product was formed; ±: a saccharide-transferred product formed in an amount of less than one percent to the total sugars; +: a saccharide-transferred product was formed in an amount of over one percent but below 10% to the total sugars; ++: a saccharide-transferred product was formed in an amount of over 10% to the total sugars; conditions: panose as saccharide donor, 10 units/g substrate, 3.2% (w/v), 30° C., pH 6.0, 24 hours
How it was run: as §1

[3] = tested on: α-isomaltosyl-transferring enzyme from Bacillus globisporus C11; test: Specificity to transferring acceptor; set-up: key: −: no saccharide transferred product was formed; ±: a saccharide-transferred product formed in an amount of less than one percent to the total sugars; +: a saccharide-transferred product was formed in an amount of over one percent but below 10% to the total sugars; ++: a saccharide-transferred product was formed in an amount of over 10% to the total sugars; conditions: panose as saccharide donor, 10 units/g substrate, 3.2% (w/v), 30° C., pH 6.0, 24 hours
How it was run: as §1

[4] = tested on: α-isomaltosyl-transferring enzyme from Arthrobacter ramosus S1; test: Specificity to transferring acceptor; set-up: key: −: no saccharide transferred product was formed; ±: a saccharide-transferred product formed in an amount of less than one percent to the total sugars; +: a saccharide-transferred product was formed in an amount of over one percent but below 10% to the total sugars; ++: a saccharide-transferred product was formed in an amount of over 10% to the total sugars; conditions: panose as saccharide donor, 10 units/g substrate, 3.2% (w/v), 30° C., pH 6.0, 24 hours
How it was run: as §1

[5] = tested on: α-isomaltosyl-transferring enzyme from Bacillus globisporus N75; test: Specificity to transferring acceptor; set-up: key: −: no saccharide transferred product was formed; ±: a saccharide-transferred product formed in an amount of less than one percent to the total sugars; +: a saccharide-transferred product was formed in an amount of over one percent but below 10% to the total sugars; ++: a saccharide-transferred product was formed in an amount of over 10% to the total sugars; conditions: panose as saccharide donor, 10 units/g substrate, 3.2% (w/v), 30° C., pH 6.0, 24 hours
How it was run: as §1

[6] = tested on: α-isomaltosyl-transferring enzyme from Arthrobacter globiformis A19; test: Action on saccharides (substrates, TLC); set-up: key: −: there was found no substrate change before and after the enzymatic reaction; +: there were found both the reduction of substrate and the formation of cyclotetrasaccharide after the enzymatic reaction; conditions: partially purified enzyme, 2 units/g substrate, 2% (w/v) substrate, 30° C., pH 6.0, 24 hours
How it was run: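 Substrates 2% (w/v), enzyme 2 units/g substrate, pH 6.0, 30° C., 24 h. Read-out: silica TLC, n-butanol:pyridine:water 6:4:1; sulfuric acid-methanol (total sugar) and diphenylamine-aniline (reducing sugar) staining, pre- vs post-reaction.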

[7] = tested on: α-isomaltosyl-transferring enzyme from Bacillus globisporus C9; test: Action on saccharides (substrates, TLC); set-up: key: −: there was found no substrate change before and after the enzymatic reaction; +: there were found both the reduction of substrate and the formation of cyclotetrasaccharide after the enzymatic reaction; conditions: 2 units/g substrate, 2% (w/v) substrate, 30° C., pH 6.0, 24 hours
How it was run: (§2)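 We incubate purified enzyme (2 units/g substrate) with 2% (w/v) saccharide for 24 h at 30° C., pH 6.0. Pre- and post-reaction samples are then compared on silica TLC.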

[8] = tested on: α-isomaltosyl-transferring enzyme from Bacillus globisporus C11; test: Action on saccharides (substrates, TLC); set-up: key: −: there was found no substrate change before and after the enzymatic reaction; +: there were found both the reduction of substrate and the formation of cyclotetrasaccharide after the enzymatic reaction; conditions: 2 units/g substrate, 2% (w/v) substrate, 30° C., pH 6.0, 24 hours
How it was run: as §2

[9] = tested on: α-isomaltosyl-transferring enzyme from Arthrobacter ramosus S1; test: Action on saccharides (substrates, TLC); set-up: key: −: there was found no substrate change before and after the enzymatic reaction; +: there were found both the reduction of substrate and the formation of cyclotetrasaccharide after the enzymatic reaction; conditions: 2 units/g substrate, 2% (w/v) substrate, 30° C., pH 6.0, 24 hours
How it was run: as §2

[10] = tested on: α-isomaltosyl-transferring enzyme from Bacillus globisporus N75; test: Action on saccharides (substrates, TLC); set-up: key: −: there was found no substrate change before and after the enzymatic reaction; +: there were found both the reduction of substrate and the formation of cyclotetrasaccharide after the enzymatic reaction; conditions: 2 units/g substrate, 2% (w/v) substrate, 30° C., pH 6.0, 24 hours
How it was run: as §2

Row | Molecule | Product of transferring reaction, Enzyme of Stain A19 [1] | Product of transferring reaction, Enzyme of Strain C9 [2] | Product of transferring reaction, Enzyme of Strain C11 [3] | Product of transferring reaction, Enzyme of Strain S1 [4] | Product of transferring reaction, Enzyme of Strain N75 [5] | Enzymatic action for forming cyclotetrasaccharide, Enzyme of Strain A19 [6] | Enzymatic action for forming cyclotetrasaccharide, Enzyme of Strain C9 [7] | Enzymatic action for forming cyclotetrasaccharide, Enzyme of Strain C11 [8] | Enzymatic action for forming cyclotetrasaccharide, Enzyme of Strain S1 [9] | Enzymatic action for forming cyclotetrasaccharide, Enzyme of Strain N75 [10]
1 | OC[C@H]1O[C@@H](O[C@H]2O[C@H](CO)[C@@H](O)[C@H](O)[C@H]2O)[C@H](O)[C@@H](O)[C@@H]1O [α,β-trehalose] | ++ (a saccharide-transferred product was formed in an amount of over 10% to the total sugars) | ++ (a saccharide-transferred product was formed in an amount of over 10% to the total sugars) | ++ (a saccharide-transferred product was formed in an amount of over 10% to the total sugars) | ++ (a saccharide-transferred product was formed in an amount of over 10% to the total sugars) | ++ (a saccharide-transferred product was formed in an amount of over 10% to the total sugars) | − | − | − | − | −
2 | OC[C@H]1O[C@@H]2O[C@H]3[C@H](O)[C@@H](O)[C@@H](O[C@H]4[C@H](O)[C@@H](O)[C@@H](O[C@H]5[C@H](O)[C@@H](O)[C@@H](O[C@H]6[C@H](O)[C@@H](O)[C@@H](O[C@H]7[C@H](O)[C@@H](O)[C@@H](O[C@H]1[C@H](O)[C@H]2O)O[C@@H]7CO)O[C@@H]6CO)O[C@@H]5CO)O[C@@H]4CO)O[C@@H]3CO [α-Cyclodextrin, α-cyclodextrin] | − | − | − | − | − | − | − | − | − | −
3 | OC[C@H]1O[C@@H]2O[C@H]3[C@H](O)[C@@H](O)[C@@H](O[C@H]4[C@H](O)[C@@H](O)[C@@H](O[C@H]5[C@H](O)[C@@H](O)[C@@H](O[C@H]6[C@H](O)[C@@H](O)[C@@H](O[C@H]7[C@H](O)[C@@H](O)[C@@H](O[C@H]8[C@H](O)[C@@H](O)[C@@H](O[C@H]1[C@H](O)[C@H]2O)O[C@@H]8CO)O[C@@H]7CO)O[C@@H]6CO)O[C@@H]5CO)O[C@@H]4CO)O[C@@H]3CO [β-Cyclodextrin, β-cyclodextrin] | − | − | − | − | − | − | − | − | − | −
4 | OC[C@H]1O[C@@H]2O[C@H]3[C@H](O)[C@@H](O)[C@@H](O[C@H]4[C@H](O)[C@@H](O)[C@@H](O[C@H]5[C@H](O)[C@@H](O)[C@@H](O[C@H]6[C@H](O)[C@@H](O)[C@@H](O[C@H]7[C@H](O)[C@@H](O)[C@@H](O[C@H]8[C@H](O)[C@@H](O)[C@@H](O[C@H]9[C@H](O)[C@@H](O)[C@@H](O[C@H]1[C@H](O)[C@H]2O)O[C@@H]9CO)O[C@@H]8CO)O[C@@H]7CO)O[C@@H]6CO)O[C@@H]5CO)O[C@@H]4CO)O[C@@H]3CO [γ-Cyclodextrin, γ-cyclodextrin] | − | − | − | − | − | − | − | − | − | −
5 | maltopentaose | + (a saccharide-transferred product was formed in an amount of over one percent but below 10% to the total sugars) | + (a saccharide-transferred product was formed in an amount of over one percent but below 10% to the total sugars) | + (a saccharide-transferred product was formed in an amount of over one percent but below 10% to the total sugars) | ± (a saccharide-transferred product formed in an amount of less than one percent to the total sugars) | ± (a saccharide-transferred product formed in an amount of less than one percent to the total sugars) | − | − | − | − | −
6 | maltotriose | + (a saccharide-transferred product was formed in an amount of over one percent but below 10% to the total sugars) | + (a saccharide-transferred product was formed in an amount of over one percent but below 10% to the total sugars) | + (a saccharide-transferred product was formed in an amount of over one percent but below 10% to the total sugars) | ++ (a saccharide-transferred product was formed in an amount of over 10% to the total sugars) | + (a saccharide-transferred product was formed in an amount of over one percent but below 10% to the total sugars) | − | − | − | − | −

Source: patent US7192746B2, “α-Isomaltosyltransferase, process for producing the same and use thereof” (Kabushiki Kaisha Hayashibara Seibutsu Kagaku Kenkyujo, priority 2000, dated 2007)
